Measured values as given in patent US20160264932A1, “METHOD FOR PREPARING CULTURE MEDIUM FOR CULTURING PLANT TISSUE, METHOD FOR CULTURING PLANT TISSUE, STERILIZING AGENT, MICROBICIDAL AGENT, AND CULTURE MEDIUM COMPOSITION FOR CULTURING PLANT TISSUE” (priority 2013, published 2016).

Assays:
Type in all cases: cell-based
[1] = test system: S3 strain, presumed to be Serratia sp.; assay: Sterilizing effect of microbicidal liquids in the inoculating process (FIG. 9), S3; conditions: inoculated on potato explant; explant treated with microbicidal liquid (Ox 200 mg/L or higher; Nata 10000 mg/L or higher)
Method: (§1) An experiment was conducted to determine how the sterilizing effect after inoculation is related to the concentrations and combination of the agents used in the microbicidal liquid for explants and the microbicidal liquid for culture vessels. The experimental condition was as follows:
(§2) Solid culture medium: dosed with Otsuka-A
(§3) Sterilizing method: autoclave
(§4) Method of inoculation of bacteria: on culture medium surface [as for “B5” and “S3”, 50 μL per test tube of the bacterial suspension was dropped onto the surface of the culture medium; and as for “An”, 10 mg per test tube of either a conidial powder or a conidial powder diluted with a-starch to a predetermined dilution ratio was poured onto the culture medium]; or on explant [as for “B5” and “S3”, the explant was immersed in the bacterial suspension (whereby 10 μL per explant was attached); and as for “An”, the explant was coated with either a conidial powder or a conidial powder diluted with a-starch to a predetermined dilution ratio (whereby 5 mg per explant was attached)]

external bacteria = assay: Occurrence rate of microbial contamination of liquid culture medium after sterilization (FIG. 14); conditions: explants inoculated in a common room, no bacteria inoculated
Method: The contamination rate by external bacteria after sterilization of a liquid culture medium was investigated. In any cases, the result was obtained under the condition that the inoculation of explants was performed in a common room with no bacteria inoculated. […] The microbial contamination rate increased when any one of the following agents was omitted: SE-P, Nisin, Ox, Nata, Cap, Imp10 and Cl7.

[2] = test system: B5 strain, presumed to be Bacillus subtilis; assay: Sterilizing effect of microbicidal liquids in the inoculating process (FIG. 9), B5; conditions: inoculated on potato explant; explant treated with microbicidal liquid (Cap or Nata 10000 mg/L or higher)
Method: as §1, §2, §3, §4

[3] = test system: microbial colony formation (bacteria, filamentous fungi); assay: Microbial recontamination of sterilized solid culture medium after solidification (FIG. 8)
Method: A sterilized culture medium (Otsuka-A solid culture medium) was placed in 50 test tubes held in a tube stand and kept intact on a standard laboratory table (at temperatures of 14-24° C.), and the temporal change in the degree of microbial colony formation was investigated.

[4] = test system: An (filamentous fungus, presumed to be Aspergillus niger complex); assay: Sterilizing effect of microbicidal liquids in the inoculating process (FIG. 9), An; conditions: bacteria inoculated on potato explant, explant treated, 14 days
Method: as §1, §2, §3, §4

plant bodies = assay: Influence of agent concentration on growth of plant (solid culture medium, FIG. 6); conditions: 30 days
Description: The influence of a change in the concentrations of the agents used for sterilizing the culture medium on the growth of plants was investigated. The culture condition in this experiment was as follows:
Culture medium components: solid culture medium dosed with Otsuka-A
Number of plant bodies: 10
Numerical values: average±standard deviation
Sterilizing method: one-time dosing mode
Inoculating method (Culturing method): the method shown in FIG. 4 was used, with SE-P2000Cl140/SE-P2000Cl140 as the first/second microbicidal liquids, respectively.
In FIG. 6, the “Autoclave (Conventional Method)” indicates comparative examples, in which an explant which had undergone a microbicidal treatment in an autoclave was placed in a liquid culture medium and cultured in a clean bench.

Molecule	formation of S3 colonies [1]	microbial contamination rate when the agent was omitted (external bacteria)	formation of B5 colonies [2]	open storage of the culture ([3]; Natamycin in addition to P1670, Nisaplin and wettable powder STARNER, no ZonenC)	newly invasion of filamentous fungi ([3]; used in addition to P1670, Nisaplin and wettable powder STARNER)	concentration in microbicidal liquid preventing An colony formation to some extent [4] [mg/L]	concentration that did not negatively affect growth (plant bodies) [µg/mL]	need of adding the agent to prevent microbial contamination (external bacteria)
C[C@@H]1C/C=C/C=C/C=C/C=C/[C@H](O[C@@H]2O[C@H](C)[C@@H](O)[C@H](N)[C@@H]2O)C[C@@H]2O[C@](O)(C[C@@H](O)C[C@H]3O[C@@H]3/C=C/C(=O)O1)C[C@H](O)[C@H]2C(=O)O [Natamycin]	could not prevent	increased	could not prevent	open storage of the culture was not possible	dramatically decreased	≥ 10000	≤ 100	–
Egg-white lysozyme	–	–	–	–	–	–	–	not necessary
